Reference: patent US20240189263A1, “DERIVATIZED C60 MOLECULES AND METHODS AND MATERIALS FOR USING DERIVATIZED C60 MOLECULES TO REDUCE RADIATION INJURY” (Mayo Foundation for Medical Education and Research, priority 2021, published 2024)

Columns and labels:
Format in all cases: cell-based
[1] = tested on: HUVEC cells; assay: ROS by H2-DCFDA probe after proton irradiation, HUVEC; settings: 50 μM, positive control
Text: (§1) Cell lines were irradiated using pencil beam scanning (PBS) proton beams produced by IBA ProteusOne (Ion Beam Applications, Louvain-la-Neuve, Belgium). Single layer mono-energy 227 MeV pencil beams with uniform spacing of 0.25 cm between each spot were used to create a large field size with uniform dose distribution (±2%) that encompassed all sample wells containing the cells. A fixed source to surface distance (SSD) setup and gantry at 180 degrees was used to delivery 0.5, 1, 2, 4, and 6 Gray (Gy) dose of ionizing radiation to cells. The cells were place at an 8 cm depth, with a linear energy transfer (LET) of approximately 1.7 keV/μm, using solid water slabs as a buildup. […] The monitor units needed to deliver the intended dose were calculated using the measure dose/MU values.
(§2) Post radiation, 2′,7′-dichlorodihydrofluorescein diacetate (H2-DCFDA) probes were used to measure the level of reactive oxygen species (ROS) post-proton radiation (1 Gy, 230 MeV proton beam). […] A fluorescence microplate reader (SpectraMax M5, Molecular Devices Corporation, California, USA) was used to detect the generation of fluorescent DCF molecules with an excitation filter of 485 nm and an emission filter of 525 nm, with a 515 nm cutoff filter. […] Following irradiation, the cells were transported back for plate reading, 30 minutes post radiation.

[2] = tested on: N2A cells; assay: ROS by H2-DCFDA probe after proton irradiation, N2A; settings: 50 μM, positive control
Text: as §1, §2

[3] = tested on: NIH3T3 cells; assay: ROS by H2-DCFDA probe after proton irradiation, NIH3T3; settings: NIH3T3, 50 μM, positive control
Text: as §1, §2

[4] = tested on: HepG2 cells; assay: ROS by H2-DCFDA probe after proton irradiation, HepG2; settings: control HepG2 cells, 50 μM, positive control
Text: as §1, §2

Measured: ROS (H2-DCFDA fluorescence)

CC(=O)N[C@@H](CS)C(=O)O [NAC, N-acetyl cysteine, reference compound]
decrease in ROS: all assays above
